Reference: ChEMBL document CHEMBL2321758, “Discovery of 4-{4-[(3R)-3-Methylmorpholin-4-yl]-6-[1-(methylsulfonyl)cyclopropyl]pyrimidin-2-yl}-1H-indole (AZ20): a potent and selective inhibitor of ATR protein kinase with monotherapy in vivo antitumor activity” (J Med Chem, 2013)
≈ marks a conversion by molar mass, not a printed value. Calls of active or inactive are those of the source. The calls are words filed in the database; no cut-off is given here.

Key:
[1] = Fraction unbound in rat plasma; type: ADME, cell-free
[2] = AUC in Han-Wistar rat at 4 umol/kg, po; type: ADME, organism-based; settings: plasma
[3] = Apparent permeability from apical to basolateral side in human Caco2 cells at 10 uM at pH 6.5; type: ADME, cell-based; settings: Caco-2, pH 6.5
[4] = Solubility of the compound in phosphate buffer after 24 hrs at pH 7.4 by LC-UV-MS analysis; type: physicochemical
[5] = molecular target: T1, Serine/threonine-protein kinase mTOR (Homo sapiens, UniProt P42345); test: Inhibition of mTOR-mediated AKT phosphorylation at serine 473 in human MDA-MB-468 cells; type: cell-based
[6] = molecular target: T2, Serine/threonine-protein kinase ATR (Homo sapiens, UniProt Q13535); type: cell-based, HT-29
[7] = molecular target: T3, Phosphatidylinositol 4,5-bisphosphate 3-kinase catalytic subunit alpha isoform (Homo sapiens, UniProt P42336); test: Inhibition of PI3Kalpha (unknown origin)
[8] = molecular target: T1, Serine/threonine-protein kinase mTOR; test: Inhibition of recombinant mTOR (unknown origin)
[9] = molecular target: T2, Serine/threonine-protein kinase ATR
in vitro = settings: rat, hepatocytes
physchem = settings: octanol/buffer, pH 7.4
[10] = Aqueous solubility of the compound at pH 7.4; type: physicochemical; settings: buffer
[11] = molecular target: DNA-dependent protein kinase catalytic subunit (Homo sapiens, UniProt P78527); test: Inhibition of DNA-PK (unknown origin)
LoVo [12] = test: Antitumor activity against human LoVo cells xenografted in Swiss nu/nu mouse assessed as tumor growth inhibition at 50 mg/kg, po qd for 13 days relative to control; type: functional, organism-based; parameters: dose 50 mg/kg
LoVo [13] = test: Antitumor activity against human LoVo cells xenografted in Swiss nu/nu mouse assessed as tumor growth inhibition at 25 mg/kg, po bid for 13 days relative to control; type: functional, organism-based; parameters: dose 25 mg/kg
[14] = molecular target: T3, Phosphatidylinositol 4,5-bisphosphate 3-kinase catalytic subunit alpha isoform; test: Inhibition of PI3Kalpha (unknown origin) assessed as residual activity at 1 uM
[15] = molecular target: T1, Serine/threonine-protein kinase mTOR; test: Inhibition of recombinant mTOR (unknown origin) assessed as residual activity at 1 uM
[16] = Oral bioavailability in Han-Wistar rat at 4 umol/kg; type: ADME, organism-based; settings: in vivo
[17] = Bioavailability in rat; type: ADME, organism-based; settings: in vivo
[18] = Plasma clearance in rat; type: ADME, organism-based
[19] = Volume of distribution in rat; type: ADME, organism-based; settings: in vivo
[20] = molecular target: Voltage-gated inwardly rectifying potassium channel KCNH2 (Homo sapiens, UniProt Q12809)
[21] = Dissociation constant, pKa of the compound; type: physicochemical

T2 sequence (Q13535 whole entry, canonical isoform): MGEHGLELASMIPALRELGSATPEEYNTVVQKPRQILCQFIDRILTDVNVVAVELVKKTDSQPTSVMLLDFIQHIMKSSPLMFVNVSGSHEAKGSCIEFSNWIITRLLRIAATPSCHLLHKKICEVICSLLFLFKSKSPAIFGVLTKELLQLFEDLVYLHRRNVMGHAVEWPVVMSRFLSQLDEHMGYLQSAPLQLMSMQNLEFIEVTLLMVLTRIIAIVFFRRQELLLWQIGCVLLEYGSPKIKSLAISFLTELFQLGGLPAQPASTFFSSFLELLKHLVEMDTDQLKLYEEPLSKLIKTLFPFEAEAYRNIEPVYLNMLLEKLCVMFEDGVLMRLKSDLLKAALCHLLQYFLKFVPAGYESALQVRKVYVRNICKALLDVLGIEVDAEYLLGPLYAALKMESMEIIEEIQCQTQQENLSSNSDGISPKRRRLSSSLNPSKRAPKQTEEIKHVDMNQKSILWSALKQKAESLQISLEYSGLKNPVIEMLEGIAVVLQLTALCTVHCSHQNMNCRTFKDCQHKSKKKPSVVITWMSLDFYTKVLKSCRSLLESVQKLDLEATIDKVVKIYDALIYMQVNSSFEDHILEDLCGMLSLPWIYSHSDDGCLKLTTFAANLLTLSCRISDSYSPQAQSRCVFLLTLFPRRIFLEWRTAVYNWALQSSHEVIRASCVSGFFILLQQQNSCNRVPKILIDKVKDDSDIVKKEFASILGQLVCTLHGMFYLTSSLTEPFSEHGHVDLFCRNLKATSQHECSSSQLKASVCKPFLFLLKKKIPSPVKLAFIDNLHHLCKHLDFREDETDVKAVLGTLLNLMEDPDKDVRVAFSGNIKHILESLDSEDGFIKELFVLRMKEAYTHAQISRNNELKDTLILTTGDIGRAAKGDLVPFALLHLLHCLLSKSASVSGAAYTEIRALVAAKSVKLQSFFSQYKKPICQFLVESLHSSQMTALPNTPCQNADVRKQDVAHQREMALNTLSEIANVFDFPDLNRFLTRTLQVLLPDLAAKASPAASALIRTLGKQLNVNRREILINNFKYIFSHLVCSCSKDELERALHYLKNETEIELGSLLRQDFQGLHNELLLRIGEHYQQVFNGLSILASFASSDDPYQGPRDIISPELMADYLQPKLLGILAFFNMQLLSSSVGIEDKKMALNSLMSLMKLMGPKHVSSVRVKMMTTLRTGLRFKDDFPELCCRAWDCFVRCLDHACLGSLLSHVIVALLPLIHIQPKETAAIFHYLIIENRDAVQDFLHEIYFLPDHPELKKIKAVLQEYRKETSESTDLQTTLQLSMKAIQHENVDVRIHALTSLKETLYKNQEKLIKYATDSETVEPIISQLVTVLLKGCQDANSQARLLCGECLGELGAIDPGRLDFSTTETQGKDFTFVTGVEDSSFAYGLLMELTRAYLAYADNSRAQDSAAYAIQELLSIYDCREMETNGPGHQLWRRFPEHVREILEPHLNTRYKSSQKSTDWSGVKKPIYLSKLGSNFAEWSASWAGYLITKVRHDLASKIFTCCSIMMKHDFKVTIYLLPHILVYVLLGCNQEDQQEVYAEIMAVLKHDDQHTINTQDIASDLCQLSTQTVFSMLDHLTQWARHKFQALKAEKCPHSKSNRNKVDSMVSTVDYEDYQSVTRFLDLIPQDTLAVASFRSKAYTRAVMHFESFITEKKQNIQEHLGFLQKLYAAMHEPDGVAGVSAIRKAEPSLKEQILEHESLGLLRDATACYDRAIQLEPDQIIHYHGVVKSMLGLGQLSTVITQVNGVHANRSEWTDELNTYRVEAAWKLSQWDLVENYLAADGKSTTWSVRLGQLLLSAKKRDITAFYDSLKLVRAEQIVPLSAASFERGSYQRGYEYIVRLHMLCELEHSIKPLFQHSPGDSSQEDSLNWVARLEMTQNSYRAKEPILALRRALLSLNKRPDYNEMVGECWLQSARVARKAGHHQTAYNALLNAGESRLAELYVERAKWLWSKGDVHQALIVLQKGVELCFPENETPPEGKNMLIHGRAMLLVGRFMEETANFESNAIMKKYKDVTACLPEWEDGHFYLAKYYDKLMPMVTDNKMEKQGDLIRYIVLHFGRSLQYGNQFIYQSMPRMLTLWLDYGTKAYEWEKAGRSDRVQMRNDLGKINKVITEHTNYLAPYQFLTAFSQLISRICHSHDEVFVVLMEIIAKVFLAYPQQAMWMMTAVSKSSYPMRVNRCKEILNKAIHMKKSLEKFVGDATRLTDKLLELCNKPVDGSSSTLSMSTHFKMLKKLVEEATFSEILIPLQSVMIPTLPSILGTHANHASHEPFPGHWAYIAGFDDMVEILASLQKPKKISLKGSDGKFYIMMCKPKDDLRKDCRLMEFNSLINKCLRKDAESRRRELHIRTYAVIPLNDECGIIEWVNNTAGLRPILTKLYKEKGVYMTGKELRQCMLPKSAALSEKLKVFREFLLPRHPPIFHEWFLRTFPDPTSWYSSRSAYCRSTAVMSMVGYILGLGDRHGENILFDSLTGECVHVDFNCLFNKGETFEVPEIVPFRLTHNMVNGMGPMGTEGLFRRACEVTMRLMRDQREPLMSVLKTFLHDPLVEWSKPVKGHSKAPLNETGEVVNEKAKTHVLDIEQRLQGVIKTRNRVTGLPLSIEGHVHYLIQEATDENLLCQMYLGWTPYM
T3 sequence (P42336 whole entry, canonical isoform): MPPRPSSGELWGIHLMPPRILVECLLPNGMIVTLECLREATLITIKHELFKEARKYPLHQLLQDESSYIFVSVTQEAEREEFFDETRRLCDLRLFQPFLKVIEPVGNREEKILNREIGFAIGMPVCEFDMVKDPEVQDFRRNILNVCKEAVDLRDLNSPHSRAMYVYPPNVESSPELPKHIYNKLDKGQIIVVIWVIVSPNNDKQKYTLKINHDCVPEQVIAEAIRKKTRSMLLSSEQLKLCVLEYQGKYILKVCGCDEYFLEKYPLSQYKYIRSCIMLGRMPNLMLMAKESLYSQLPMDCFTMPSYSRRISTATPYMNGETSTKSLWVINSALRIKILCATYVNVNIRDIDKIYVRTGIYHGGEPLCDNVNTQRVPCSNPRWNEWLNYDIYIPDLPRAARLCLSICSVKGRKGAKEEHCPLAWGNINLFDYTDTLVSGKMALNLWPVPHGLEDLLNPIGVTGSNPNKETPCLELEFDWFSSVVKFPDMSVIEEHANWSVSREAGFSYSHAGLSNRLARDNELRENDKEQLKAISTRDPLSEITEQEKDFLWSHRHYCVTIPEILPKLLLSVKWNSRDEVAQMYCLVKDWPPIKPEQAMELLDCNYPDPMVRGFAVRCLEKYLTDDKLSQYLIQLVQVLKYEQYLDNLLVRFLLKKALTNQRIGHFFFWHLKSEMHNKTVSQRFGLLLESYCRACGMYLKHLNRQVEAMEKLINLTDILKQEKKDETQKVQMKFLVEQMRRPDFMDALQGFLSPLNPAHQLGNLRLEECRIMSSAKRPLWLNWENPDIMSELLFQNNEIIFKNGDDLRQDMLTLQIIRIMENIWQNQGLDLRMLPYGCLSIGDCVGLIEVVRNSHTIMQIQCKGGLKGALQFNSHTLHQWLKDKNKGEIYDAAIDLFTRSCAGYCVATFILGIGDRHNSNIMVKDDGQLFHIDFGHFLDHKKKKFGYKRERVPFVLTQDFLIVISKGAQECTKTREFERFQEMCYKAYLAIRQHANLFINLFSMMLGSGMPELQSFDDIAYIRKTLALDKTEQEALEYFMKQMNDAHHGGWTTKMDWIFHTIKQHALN
Chain of Voltage-gated inwardly rectifying potassium channel KCNH2 (Q12809 whole entry): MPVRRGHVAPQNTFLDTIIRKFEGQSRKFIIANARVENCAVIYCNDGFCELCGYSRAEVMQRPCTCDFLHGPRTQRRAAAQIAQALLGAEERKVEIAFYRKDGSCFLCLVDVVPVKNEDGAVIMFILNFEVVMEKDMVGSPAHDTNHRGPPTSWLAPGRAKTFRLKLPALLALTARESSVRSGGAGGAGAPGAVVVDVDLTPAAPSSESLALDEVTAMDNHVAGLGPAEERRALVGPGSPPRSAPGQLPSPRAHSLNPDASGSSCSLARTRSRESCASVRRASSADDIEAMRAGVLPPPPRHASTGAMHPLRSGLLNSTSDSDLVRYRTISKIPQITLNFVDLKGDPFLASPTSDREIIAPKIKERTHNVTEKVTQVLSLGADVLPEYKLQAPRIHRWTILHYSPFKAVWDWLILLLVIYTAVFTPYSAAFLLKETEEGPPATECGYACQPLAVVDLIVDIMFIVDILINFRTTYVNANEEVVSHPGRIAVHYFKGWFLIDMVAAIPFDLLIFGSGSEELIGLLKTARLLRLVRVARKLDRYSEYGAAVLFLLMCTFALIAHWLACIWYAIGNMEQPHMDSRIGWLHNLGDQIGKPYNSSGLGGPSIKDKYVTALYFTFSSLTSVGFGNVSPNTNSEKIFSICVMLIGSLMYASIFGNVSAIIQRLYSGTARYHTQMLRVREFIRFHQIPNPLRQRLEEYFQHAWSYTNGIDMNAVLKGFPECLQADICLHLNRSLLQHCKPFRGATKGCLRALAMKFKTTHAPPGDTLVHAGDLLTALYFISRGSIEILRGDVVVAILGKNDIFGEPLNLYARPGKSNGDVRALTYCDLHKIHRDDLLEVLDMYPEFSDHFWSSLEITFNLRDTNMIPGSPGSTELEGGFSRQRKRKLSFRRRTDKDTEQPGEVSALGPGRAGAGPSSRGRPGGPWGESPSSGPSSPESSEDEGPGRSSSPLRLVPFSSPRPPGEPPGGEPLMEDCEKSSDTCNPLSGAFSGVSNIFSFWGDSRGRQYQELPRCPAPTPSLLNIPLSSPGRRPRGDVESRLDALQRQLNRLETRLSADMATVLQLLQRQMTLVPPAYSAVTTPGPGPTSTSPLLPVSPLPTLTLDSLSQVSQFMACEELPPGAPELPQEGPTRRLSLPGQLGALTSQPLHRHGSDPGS

SMILES | IC50 [6] | IC50 [9] | also measured
CC(C)(c1cc(N2CCOCC2)nc(-c2cccc3[nH]ccc23)n1)S(C)(=O)=O | 280 nM | 3 nM | fraction unbound [1]: 0.2; AUC [2]: 0.76 µM·h; Papp A→B at 10 µM [3]: 16 ×10⁻⁶ cm/s; solubility at 24 h [4]: < 0.4 µM; IC50 [5]: 2700 nM; IC50 [7]: 1600 nM; IC50 [8]: 190 nM; hepatocyte CLint at 1 µM (in vitro): 41 µL/min/1e6 cells; logD (physchem): 2.7
CS(=O)(=O)Cc1cc(N2CCOCC2)nc(-c2cccc3cc[nH]c23)n1 | > 30000 nM | 180 nM | 
CS(=O)(=O)C1(c2cc(N3CCOCC3)nc(-c3cccc4[nH]c(C#N)cc34)n2)CC1 | 7200 nM | 300 nM | 
C[C@H]1COCCN1c1cc(C2(S(C)(=O)=O)CC2)nc(-c2cccc3[nH]ccc23)n1 |  |  | logD (physchem): 2.8
CS(=O)(=O)Cc1cc(N2CCOCC2)nc(-c2ccc3cc[nH]c3c2)n1 | > 30000 nM | 1500 nM | 
Cc1c[nH]c2cccc(-c3nc(N4CCOCC4)cc(C4(S(C)(=O)=O)CC4)n3)c12 | > 30000 nM | 14000 nM | 
CS(=O)(=O)C1(c2cc(N3CCOCC3)nc(-c3cc(Cl)cc4[nH]ccc34)n2)CC1 | 720 nM | 16 nM | 
CC(C)S(=O)(=O)C1(c2cc(N3CCOCC3)nc(-c3cccc4[nH]ccc34)n2)CC1 | 770 nM | 13 nM | 
CS(=O)(=O)Cc1cc(N2CCOCC2)nc(-c2ccc3[nH]ccc3c2)n1 | > 30000 nM | 1700 nM | 
Cc1ccc2[nH]ccc2c1-c1nc(N2CCOCC2)cc(C2(S(C)(=O)=O)CC2)n1 | > 30000 nM |  | solubility [10]: 96 µM (≈ 39.6 µg/mL)
CS(=O)(=O)Cc1cc(N2CCOCC2)nc(-c2cccc3[nH]ccc23)n1 | 1100 nM | 30 nM | IC50 [5]: 5900 nM; IC50 [11]: 2700 nM; IC50 [7]: 3800 nM; IC50 [8]: 330 nM; logD (physchem): 1.7
CS(=O)(=O)C1(c2cc(N3CCOCC3)nc(-c3cccc(N)c3)n2)CC1 | > 30000 nM | 1200 nM | 
O=S(=O)(c1ccccc1)C1(c2cc(N3CCOCC3)nc(-c3cccc4[nH]ccc34)n2)CC1 | 590 nM | 5 nM | 
Cn1ccc2c(-c3nc(CS(C)(=O)=O)cc(N4CCOCC4)n3)cccc21 | > 30000 nM | 3300 nM | 
Cc1ccc(-c2nc(N3CCOCC3)cc(C3(S(C)(=O)=O)CC3)n2)c2cc[nH]c12 | 6300 nM | 220 nM | 
O=S(=O)(c1ccccn1)C1(c2cc(N3CCOCC3)nc(-c3cccc4[nH]ccc34)n2)CC1 | 2000 nM | 33 nM | 
C[C@@H]1COCCN1c1cc(C2(S(C)(=O)=O)CC2)nc(-c2cccc3[nH]ccc23)n1 |  |  | TGI (LoVo [12]): Active; TGI (LoVo [13]): Active; Activity [14]: < 50%; Activity [15]: < 50%; bioavailability [16]: 62%; Papp A→B at 10 µM [3]: 23 ×10⁻⁶ cm/s; logD (physchem): 2.7

SMILES | IC50 [6] | IC50 [9] | also measured
CS(=O)(=O)C1(c2cc(N3CCOCC3)nc(-c3cc(C#N)cc4[nH]ccc34)n2)CC1 | 1500 nM |  | 
CS(=O)(=O)C1(c2cc(N3CCOCC3)nc(-c3ccccc3)n2)CC1 | > 30000 nM | 360 nM | 
CN(C)C(=O)c1cc(-c2nc(N3CCOCC3)cc(C3(S(C)(=O)=O)CC3)n2)c2cc[nH]c2c1 | 24000 nM | 720 nM | 
CS(=O)(=O)C1(c2cc(N3CCOCC3)nc(-c3cccc4[nH]ccc34)n2)CC1 |  |  | fraction unbound [1]: 0.23; bioavailability [17]: 70%; clearance [18]: 15 mL/min/kg; Vd [19]: 2.1 L/kg; AUC [2]: 3.1 µM·h; Papp A→B at 10 µM [3]: 21 ×10⁻⁶ cm/s; solubility at 24 h [4]: 4.4 µM (≈ 1.75 µg/mL); IC50 [5]: 3200 nM; IC50 [7]: 940 nM; hepatocyte CLint at 1 µM (in vitro): < 3 µL/min/1e6 cells; logD (physchem): 2.2
CC[C@@H]1COCCN1c1cc(C2(S(C)(=O)=O)CC2)nc(-c2cccc3[nH]ccc23)n1 | 4400 nM | 170 nM | logD (physchem): 3
CS(=O)(=O)C1(c2cc(N3CCOCC3)nc(-c3cc(C(N)=O)cc4[nH]ccc34)n2)CC1 | 9200 nM | 41 nM | 
Cc1cc2c(-c3nc(N4CCOCC4)cc(C4(S(C)(=O)=O)CC4)n3)cccc2[nH]1 | 2500 nM | 28 nM | 
CN1CCC(c2cc(N3CCOCC3)nc(-c3cccc4[nH]ccc34)n2)(S(C)(=O)=O)CC1 | 3700 nM | 61 nM | logD (physchem): 1.9
O=S(=O)(C1CCNCC1)C1(c2cc(N3CCOCC3)nc(-c3cccc4[nH]ccc34)n2)CC1 | 2900 nM | 46 nM | 
CS(=O)(=O)C1(c2cc(N3CCOCC3)nc(-c3cccc4c3CC(=O)N4)n2)CC1 | 16000 nM | 120 nM | 
Cc1cc(-c2nc(N3CCOCC3)cc(C3(S(C)(=O)=O)CC3)n2)c2cc[nH]c2c1 | 490 nM | 8 nM | 
O=S(=O)(C1CCOCC1)C1(c2cc(N3CCOCC3)nc(-c3cccc4[nH]ccc34)n2)CC1 | 2800 nM | 33 nM | 
CS(=O)(=O)C1(c2cc(N3CCOCC3)nc(-c3cccc4[nH]c(C(N)=O)cc34)n2)CC1 | > 30000 nM | 1100 nM | 
CS(=O)(=O)C1(c2cc(N3CCOCC3)nc(-c3cccc4[nH]ccc34)n2)CCOCC1 | 180 nM | 4 nM | fraction unbound [1]: 0.25; AUC [2]: 0.32 µM·h; Papp A→B at 10 µM [3]: 28 ×10⁻⁶ cm/s; solubility at 24 h [4]: 1.8 µM (≈ 0.797 µg/mL); IC50 [5]: 3300 nM; IC50 [7]: 1400 nM; IC50 [20]: > 33000 nM; hepatocyte CLint at 1 µM (in vitro): 23 µL/min/1e6 cells; logD (physchem): 2.4
CS(=O)(=O)C1(c2cc(N3CCOCC3)nc(-c3cccc4[nH]ccc34)n2)CCNCC1 | 420 nM | 9 nM | fraction unbound [1]: 0.4; AUC [2]: 0.04 µM·h; Papp A→B at 10 µM [3]: 0.2 ×10⁻⁶ cm/s; solubility at 24 h [4]: 230 µM (≈ 102 µg/mL); pKa [21]: 8.8; IC50 [5]: 1500 nM; IC50 [7]: 2700 nM; IC50 [20]: > 33000 nM; hepatocyte CLint at 1 µM (in vitro): 9.4 µL/min/1e6 cells; logD (physchem): 0.7
CS(=O)(=O)C1(c2cc(N3CCOCC3)nc(-c3cccc4[nH]ncc34)n2)CC1 | 13000 nM | 130 nM | 
